{"source": "paper PMC7982320", "about": "(Pharmacology Research & Perspectives, 2021)", "key": {"CYP1A2": {"test_system": "CYP1A2", "assay": "in vitro", "type": "in vitro ADME, human", "conditions": "human"}, "[1]": {"conditions": "healthy male subjects, single oral dose of 60 mg 14C‐DFZ; cited from earlier work"}, "[2]": {"conditions": "cited from earlier work"}, "CYP2B6": {"test_system": "CYP2B6", "assay": "in vitro", "type": "in vitro ADME, human", "conditions": "human, 10 µM"}, "CYP3A4": {"test_system": "CYP3A4", "assay": "in vitro", "conditions": "human"}, "[3]": {"conditions": "CYP1A2 enzyme activity fold induction, donor one"}, "[4]": {"conditions": "CYP1A2 enzyme activity fold induction, donor three"}, "[5]": {"conditions": "CYP1A2 enzyme activity fold induction, donor two"}, "[6]": {"conditions": "CYP1A2 mRNA fold induction, donor one"}, "[7]": {"conditions": "CYP1A2 mRNA fold induction, donor three"}, "[8]": {"conditions": "CYP1A2 mRNA fold induction, donor two"}}, "data": [{"smiles": "COc1ccc2[nH]c([S+]([O-])Cc3ncc(C)c(OC)c3C)nc2c1", "note": "(centres unmarked) [Omeprazole, reference compound]", "values": [{"measurement": "fold induction at 48 h, 100 µM", "setting": "CYP1A2; [3]", "value": 3.55}, {"measurement": "fold induction at 48 h, 100 µM", "setting": "CYP1A2; [4]", "value": 8.36}, {"measurement": "fold induction at 48 h, 100 µM", "setting": "CYP1A2; [5]", "value": 5.48}, {"measurement": "fold induction at 48 h, 100 µM", "setting": "CYP1A2; [6]", "value": 39.6}, {"measurement": "fold induction at 48 h, 100 µM", "setting": "CYP1A2; [7]", "value": 40.5}, {"measurement": "fold induction at 48 h, 100 µM", "setting": "CYP1A2; [8]", "value": 34.8}]}, {"smiles": "CC1=N[C@]2(C(=O)CO)[C@@H](C[C@H]3[C@@H]4CCC5=CC(=O)C=C[C@]5(C)[C@H]4[C@@H](O)C[C@@]32C)O1", "note": "[21‐desDFZ, 21‐desacetyl deflazacort]", "values": [{"measurement": "share of 0–24 h plasma levels of total radioactivity", "setting": "[1]", "value": 33, "unit": "%"}, {"measurement": "protein binding in human plasma", "setting": "[2]", "value": "about 40%"}]}, {"smiles": "COc1c(N2CCNC(C)C2)c(F)cc2c(=O)c(C(=O)O)cn(C3CC3)c12", "note": "(centres unmarked) [Gatifloxacin, reference compound]", "values": [{"measurement": "fold induction at 48 h, 10 µM", "setting": "CYP1A2; [3]", "value": 0.744}, {"measurement": "fold induction at 48 h, 10 µM", "setting": "CYP1A2; [4]", "value": 0.996}, {"measurement": "fold induction at 48 h, 10 µM", "setting": "CYP1A2; [5]", "value": 0.805}, {"measurement": "fold induction at 48 h, 10 µM", "setting": "CYP1A2; [6]", "value": 0.941}, {"measurement": "fold induction at 48 h, 10 µM", "setting": "CYP1A2; [7]", "value": 0.898}, {"measurement": "fold induction at 48 h, 10 µM", "setting": "CYP1A2; [8]", "value": 1.12}, {"measurement": "fold induction at 48 h, 10 µM", "setting": "CYP2B6; CYP2B6 enzyme activity fold induction, donor one", "value": 0.719}, {"measurement": "fold induction at 48 h, 10 µM", "setting": "CYP2B6; CYP2B6 enzyme activity fold induction, donor three", "value": 0.875}, {"measurement": "fold induction at 48 h, 10 µM", "setting": "CYP2B6; CYP2B6 enzyme activity fold induction, donor two", "value": 1.05}, {"measurement": "fold induction at 48 h, 10 µM", "setting": "CYP2B6; CYP2B6 mRNA fold induction, donor one", "value": 0.965}, {"measurement": "fold induction at 48 h, 10 µM", "setting": "CYP2B6; CYP2B6 mRNA fold induction, donor three", "value": 0.989}, {"measurement": "fold induction at 48 h, 10 µM", "setting": "CYP2B6; CYP2B6 mRNA fold induction, donor two", "value": 0.685}, {"measurement": "fold induction at 48 h, 10 µM", "setting": "CYP3A4; CYP3A4 enzyme activity fold induction, donor one", "value": 0.881}, {"measurement": "fold induction at 48 h, 10 µM", "setting": "CYP3A4; CYP3A4 enzyme activity fold induction, donor three", "value": 1.44}, {"measurement": "fold induction at 48 h, 10 µM", "setting": "CYP3A4; CYP3A4 enzyme activity fold induction, donor two", "value": 0.861}, {"measurement": "fold induction at 48 h, 10 µM", "setting": "CYP3A4; CYP3A4 mRNA fold induction, donor one", "value": 0.612}, {"measurement": "fold induction at 48 h, 10 µM", "setting": "CYP3A4; CYP3A4 mRNA fold induction, donor three", "value": 1.18}, {"measurement": "fold induction at 48 h, 10 µM", "setting": "CYP3A4; CYP3A4 mRNA fold induction, donor two", "value": 0.591}]}]}
